According to patent US6743810B2, “Indol-3-yl derivatives” (Merck Patent GmbH, priority 2000, dated 2004):
Structures can show the parent of a compound that is named as a salt.

| melting point | SMILES |
| --- | --- |
| 137 °C | O=C(O)C[C@@H](c1ccccc1)c1c[nH]c2cc(OCCCNc3ccccn3)ccc12 (as salt: salt) [compound 46, (3S)-3-Phenyl-3-{6-[3-(pyridin-2-ylamino)propoxy]indol-3-yl}propionic acid] |
| 232 °C (dec.) | O=C(O)CC(c1ccccc1)c1c[nH]c2cc(OCCCNc3ccccn3)ccc12 (centres unmarked) (as salt: trifluoroacetate) [compound 8, 3-Phenyl-3-{6-[3-(pyridin-2-ylamino)propoxy]indol-3-yl}propionic acid] |
